Test results as given in patent US20200206157A1, “COMPOSITION FOR USE IN THE PREVENTION AND TREATMENT OF PATHOLOGIES OF THE CARDIOVASCULAR APPARATUS” (PHARMANUTRA S.P.A., priority 2017, published 2020).

Experiments:
[1] = tested on: vascular smooth muscle cells (VSMCs); assay: Vascular calcification induced by Pi 5 mM in VSMCs, extracellular calcium deposition on day 7; format: cell-based; details: rat VSMCs; for calcification inhibition: compared with 5 mM Pi in the same solvent; for effect of the individual compounds on the calcification (dose-response curves): Pi 5 mM
Procedure: The experimental model consists of vascular smooth muscle cells (VSMCs) removed from the aorta of a rat (primary cells) and stimulated for 7 days with Na3PO4 (Pi) 5 mM to induce them to […]. […] On day 7, the effect of the treatment on the extracellular calcium deposition was analyzed both by a qualitative histological method (staining of calcium deposits by Alizarin Red Staining), and by a quantitative method, by measuring the amount of […] calcium by a spectrophotometric technique (FIG. 1). Each type of experiment was repeated at least 3 times and each condition was tested at least three times within every single experiment.

[2] = tested on: human aortic cell cultures; assay: Calcification induced by inorganic phosphate (Pi, 2 mM) in human aortic cell cultures, Alizarin Red Staining quantification; format: cell-based; details: products at 0.03%; for % VAR vs CTR+: average % variation of ARS vs positive control (Pi 2 mM only); for % VAR vs CTR−: average % variation of ARS vs untreated negative control; for % VAR vs CTR− / ARS mM average: Pi 2 mM; for ARS mM average: human aortic cells, 7 days, ARS quantity proportional to calcium content
Procedure: (II) Similarly to what has been stated for the in vitro (I) study, the efficacy was tested of the composition according to the present invention comprising sucrosomial iron pyrophosphate (SRM) (Sucrosomiale®; Sucrosomial®), vitamin K2 menaquinone-7 (MK-7) and magnesium carbonate (MC) (composition called TRIO in Table 1 and FIG. 10) on the slowing of the progression of the vascular calcification induced by high levels of sodium phosphate (Pi) in a vascular cell culture and compared with the efficacy of the single components of the TRIO composition.
In particular, to execute the efficacy test, human aortic cell cultures were treated for 7 days with inorganic phosphate (Pi, 2 mM), a known calcifying agent, to induce mineralization of the cells, and with the products subjected to a concentration test 0.03% (% g of compound under examination/solution volume) and subsequently treated with the compound compositions under examination. At the end of the experimental treatment, the calcium content was quantified by a colorimetric assay, i.e. staining of the calcium deposits by Alizarin Red Staining (ARS).
The experimental design specified: untreated cell cultures (negative control CTR−), cell cultures (positive control CTR+) treated only with the calcifying agent (Pi) and cell cultures in which a calcification event was induced experimentally by the calcifying agent (Pi) and subsequently treated with the compositions/compounds under examination (0.03% concentrations) such as TRIO composition, only sucrosomial iron pyrophosphate (SRM) (Sucrosomiale®; Sucrosomial®), only vitamin K2 menaquinone-7 (MK-7) and only magnesium carbonate (MC).
The Alizarin Red Staining S (ARS) is an anthraquinone staining solution that is widely used to evaluate calcium deposits in cell cultures. Alizarin Red Staining (ARS) is versatile because the dye can be easily extracted from the coloured single layer of the cells and can be promptly dosed. The ARS quantification assay provides a sensitive tool for partial quantification of calcium in a cell matrix. Mineralization is assessed by extracting the low pH calcified mineral, neutralization with ammonia hydroxide and 405 nm colorimetric detection.
In the present study, the cells subjected to the different aforementioned treatments were fixed for ARS and the deposition of mineral was quantified by a commercially available colorimetric kit. For this purpose, a calibration curve was plotted with known and increasing ARS concentrations.
The results are set out in Table 1 and FIG. 10 as an ARS quantity that is directly proportional to the calcium content in the different experimental treatments (average value±st. dev.) and as average % variation from the controls. The data obtained from the different experimental groups were analyzed statistically and compared with T-test. The significant values in FIG. 10 compared with the positive control (p<0.05) are marked with an asterisk (*).

| Compound | calcification inhibition ([1]; in ethanol) [%] | calcification inhibition ([1]; in ethyl acetate) [%] | % VAR vs CTR+ [2] [%] | % VAR vs CTR− [2] [%] | ARS mM average [2] [mM] | effect of the individual compounds on the calcification (dose-response curves) [1] |
| --- | --- | --- | --- | --- | --- | --- |
| CC(C)=CCC/C(C)=C/CC/C(C)=C/CC/C(C)=C/CC/C(C)=C/CC/C(C)=C/CC/C(C)=C/CC1=C(C)C(=O)c2ccccc2C1=O [9_MK7, menaquinone-7] | 20 | 15 to 30 | 58.0 | 34.7 | 0.100 | – |
| O=C([O-])[O-].[Mg+2] [11_MC, magnesium carbonate] | – | – | −49.6 | 61.7 | 0.120 | – |
| [Cl-].[Cl-].[Mg+2] [MgCl2, magnesium chloride] | – | – | – | – | – | powerful calcification inhibitors, with a dose-dependent protective effect |
| iron (III) pyrophosphate [Fe4(P2O7)3] | – | – | – | – | – | powerful calcification inhibitors, with a dose-dependent protective effect |
